Source: patent US12358921B2, “Antiviral heterocyclic compounds” (priority 2022, dated 2025)

Legend:
[1] = system: HUMAN RSV-A (“LONG” STRAIN); assay: RSV-A assay (CPE, ATPlite) in Hep-2 cells; assay type: cell-based; conditions: human respiratory syncytial virus, 120 h, MOI 0.1, 5-day incubation
Excerpt: Methods for RSV-A Assay Hep-2 cells, (originally derived from tumors grown in irradiated-cortisonised weanling rats that had been injected with epidermoid carcinoma tissue from the larynx of a person, but later found to be indistinguishable from HeLa cells by PCR DNA analysis), were used for the culturing of genotype A, “Long” strain RSV. Flasks were inoculated with RSV and viral stocks were collected once cytopathic effect (CPE) was greater than 90%. Viral stocks in 25% sucrose media were snap frozen using liquid nitrogen to increase viral stability. Viral stock titers were quantified by tissue culture infectious dose 50% (TCID50) using 8,000 cells per well and 3-fold viral dilutions across a 96-well plate, cultured for 4 days. Viral stock titers were also quantified by a plaque forming unit assay, as described elsewhere.
Following extensive parameter testing, the final assay is run as follows: Hep-2 cells are seeded into the inner 60 wells of a 96-well plate at 8,000 cells per well in a volume of 50 μL using Growth Media (DMEM without phenol red, 1% L-Glut, 1% Penn/Strep, 1% nonessential amino acids, 10% heat-inactivated FBS). 2-fold serial dilutions of control and test compounds are added to the wells in duplicate in a total volume of 25 μL. Viral stock is then added to the wells at a multiplicity of infection (MOI) of 0.1 in a volume of 25 μL, bringing the total volume of each well to 100 μL. The MOI is calculated using the PFU/mL, or TCID50 if unavailable. Each 96-well plate has a control column of 6 wells with cells and virus but no compound (negative control, max CPE), a column with cells but no compound or virus (positive control, minimum CPE), and a column with no cells or virus or compound (background plate/reagent control). The control wells with cells but no virus are given an additional 25 μL of growth media containing an equal quantity of sucrose as those wells receiving the viral stock in order to keep consistent in media and volume conditions. The outer wells of the plate are filled with 125 μL of moat media (DMEM, 1% Penn/Strep) to act as a thermal and evaporative moat around the test wells. Following a 5-day incubation period, the plates are read using ATPlite (50 uL added per well), which quantifies the amount of ATP (a measure of cell health) present in each well. Assay plates are read using the Envision luminometer. […] EC50 ranges are as follows: A<0.2 μM; B>0.2 μM.

[2] = system: hMPV A2 TN/94-49; assay: HMPV antiviral assay Method 2 (LLC-MK2 cells with CP-100-356, ATP-Lite); assay type: cell-based; conditions: hMPV A2 TN/94-49, LLC-MK2 cells, 4 μM CP-100-356, Method 2
Procedure: In vitro HMPV antiviral activity was evaluated using the clinical isolate A2 strain TN 94-49 (obtained from Dr. John Williams, Vanderbilt University, Tennessee) and LLC-MK2 cells (Millipore Sigma CB_85062804), an immortalized kidney epithelial cell line from Macaca mulatta. Compounds were resuspended in dimethyl sulfoxide (DMSO) at 10 mM, serially diluted and added to a 384-well source plate. Subsequently, the compounds were diluted and transferred onto 384-well assay plates using the Echo-650 automated liquid handling system (Beckman Coulter, Indiana). The test compounds were assessed in duplicate at a top concentration of 200 nM followed by 2.5-fold serial dilutions to give a total of 10 concentration points. DMSO control wells were also included on the assay plates and were either infected or not, acting as positive and negative controls. A2 TN 94-49 virus infections were performed in-suspension with LLC-MK2 cells. The cells were washed twice with PBS and removed from the cell-culture flask with 0.25% trypsin-EDTA (Thermo Fisher Scientific, MA). The trypsin-EDTA was inactivated by resuspending in 2% fetal bovine serum (FBS) and OptiMEM (ThermoFisher Scientific, MA) containing 1% antibiotic-antimycotic. Cells were pelleted by centrifuging for 5 minutes at 800 rpm, the supernatant was removed, and cells were re-suspended and washed in PBS plus 100 μg/mL CaCl2). This step was performed twice. Cells were then re-suspended in serum-free (SF)-OptiMEM containing 4 μg/mL TPCK-Trypsin (Sigma Aldrich, MO), 1% antibiotic-antimycotic (ThermoFisher Scientific, MA), 100 μg/mL CaCl2), and 4 μM of CP-100-356, a P-glycoprotein inhibitor. Cells were counted and seeded at a density of 5,000 cells/well, 12.5 μL/well. Virus infections were done at a multiplicity of infection (MOI) of 0.16 with 12.5 μL added per well. Virus infections were performed in infection media which contained SF-OptiMEM, 100 μg/mL CaCl2) and 1% antibiotic-antimycotic. HMPV viral stocks are suspended in infection media+5% glycerol, thus an equal volume of infection media+5% glycerol was added to uninfected wells to equalize the final % glycerol across all wells of the assay plate. The final concentration of TPCK-trypsin was 2 μg/mL. The final concentration of CP-100-356 was 2 μM. The assay plates were incubated at 37° C., 5% CO2 for 7 days. After 7 days incubation, 12.5 μL of ATP-Lite (PerkinElmer, MA) was added to each well and the raw luminescence values were determined using the Envision 2104 (Perkin Elmer, MA). The average of the raw luminescence values for the cells and virus only positive control wells was subtracted from all conditions tested and the percent cell health was determined by dividing these values by the average of the cells only negative control wells. EC50 values were then calculated by non-linear regression using a four-parameter curve logistic equation. The curve fit model employed was XLFit Dose Response One Site Model 200: y=(A+(B/(1+((x/C)^D)))), where A is the minimum y value, B is the maximum y value, C is the log EC50value, and D is the slope factor.

| SMILES | EC50 [1] [µM] | EC50 [2] [µM] |
| --- | --- | --- |
| COc1cc(C(=O)NC[C@@](O)(c2ccccc2)c2cc3c(c(-c4cc(C(F)(F)F)c(F)cc4F)n2)OC[C@]3(C)C(N)=O)cc2cn(C3CC3)nc12 [Example 302] | < 0.2 | < 0.2 |
| Cc1nc2c(OC(F)F)cc(C(=O)NC[C@](O)(c3cc4c(c(-c5cc(Cl)c(F)cc5F)n3)OC[C@]4(C)C(N)=O)c3ccccc3F)cc2cc1Br [Example 139] | < 0.2 | > 0.2 |
| C[C@]1(C(N)=O)COc2c1cc([C@@](O)(CNC(=O)c1cc(OC3CC3)c3ncc(Cl)cc3c1)c1ccccc1)nc2-c1cc(Cl)c(F)cc1F [Example 196] | < 0.2 | < 0.2 |
| COc1cc(C(=O)NC[C@@](O)(c2ccccc2)c2cc3c(c(-c4cc(F)c(F)cc4F)n2)OC[C@]3(C)C(N)=O)cc2oc(C)nc12 [Example 193] | < 0.2 | < 0.2 |
| C[C@]1(C(N)=O)COc2c1cc([C@@](O)(CNC(=O)c1ccc3nn(C4CC4)cc3c1)c1ccccc1)nc2-c1cc(Cl)c(F)cc1F [Example 101] | < 0.2 | < 0.2 |
| C[C@]1(C(N)=O)COc2c1cc([C@@](O)(CNC(=O)c1cc(Cl)c3nn(C4CC4)cc3c1)c1ccccc1)nc2-c1cc(Cl)c(F)cc1F [Example 99] | < 0.2 | < 0.2 |
| C[C@]1(C(N)=O)COc2c1cc([C@@](O)(CNC(=O)c1ccc3nc(C4CC4)oc3c1)c1ccccc1)nc2-c1cc(C(F)(F)F)c(F)cc1F [Example 307] | < 0.2 | > 0.2 |
| C[C@]1(C(N)=O)COc2c1cc([C@@](O)(CNC(=O)c1cc(Cl)c3[nH]ncc3c1)c1ccccc1)nc2-c1cc(Cl)c(F)cc1F [Example 117] | < 0.2 | > 0.2 |
| COc1cc(C(=O)NC[C@@](O)(c2cccc(F)n2)c2cc3c(c(-c4cc(Cl)c(F)cc4F)n2)OC[C@]3(C)C(N)=O)cc2cn(C3(F)CC3)nc12 [Example 204] | < 0.2 | < 0.2 |
| COc1cc(C(=O)NC[C@@](O)(c2cccc(F)c2)c2cc3c(c(-c4cccc(Cl)c4Cl)n2)OC[C@]3(C)C(N)=O)cn2cc(C3CC3)nc12 [Example 337] | < 0.2 | < 0.2 |
| COc1cc(C(=O)NC[C@@](O)(c2cccc(F)c2)c2cc3c(c(-c4cccc(Cl)c4Cl)n2)OC[C@]3(C)C(N)=O)cc2cc(C3CC3)nn12 [Example 336] | < 0.2 | < 0.2 |
| COc1cc(C(=O)NC[C@@](O)(c2ccccc2)c2cc3c(c(-c4cc(F)c(F)cc4F)n2)OC[C@]3(C)C(N)=O)cc2cc(Cl)cnc12 [Example 198] | < 0.2 | < 0.2 |
| COc1cc(C(=O)NC[C@@](O)(c2cnn(C)c2)c2cc3c(c(-c4cc(Cl)c(F)cc4F)n2)OC[C@]3(C)C(N)=O)cc2cn(C3CC3)nc12 [Example 153] | > 0.2 | > 0.2 |
| COc1cc(F)c(-c2nc([C@@](O)(CNC(=O)c3cc(OC)c4nn(C5(F)CC5)cc4c3)c3ccccc3)cc3c2OC[C@]3(C)C(N)=O)cc1F [Example 363] | < 0.2 | > 0.2 |
| [2H]c1nc2c(OC)cc(C(=O)NC[C@@](O)(c3ccccc3)c3cc4c(c(-c5cc(Cl)c(F)cc5F)n3)OC[C@]4(C)C(N)=O)cc2cc1Cl [Example 220] | < 0.2 | < 0.2 |
| C[C@]1(C(N)=O)COc2c1cc([C@@](O)(CNC(=O)c1cc(OC3CC3)c3nn(C4(F)CC4)cc3c1)c1cccc(F)c1)nc2-c1cccc(Cl)c1Cl [Example 339] | < 0.2 | < 0.2 |
| C[C@]1(C(N)=O)COc2c1cc([C@@](O)(CNC(=O)c1cc(F)c3nn(C4CC4)cc3c1)c1ccccc1)nc2-c1cc(Cl)c(F)cc1F [Example 100] | < 0.2 | < 0.2 |

The remaining lines, values ahead:

| EC50 [1] [µM] | EC50 [2] [µM] | SMILES |
| --- | --- | --- |
| > 0.2 | > 0.2 | COc1cc(C(=O)NC[C@](O)(c2cc3c(c(-c4cc(Cl)c(F)cc4F)n2)OC[C@]3(C)C(N)=O)c2nccn2C)cc2cn(C3CC3)nc12 [Example 464] |
| < 0.2 | < 0.2 | COc1cc(C(=O)NC[C@@](O)(c2ccnc(C#N)c2)c2cc3c(c(-c4cc(Cl)c(F)cc4F)n2)OC[C@]3(C)C(N)=O)cc2cn(C3CC3)nc12 [Example 501] |
| < 0.2 | < 0.2 | COc1cc(C(=O)NC[C@@](O)(c2ccccc2)c2cc3c(c(-c4cccc(Cl)c4F)n2)OC[C@]3(C)C(N)=O)cc2cn(C3(F)CC3)nc12 [Example 369] |
| < 0.2 | < 0.2 | COc1cc(C(=O)NC[C@@](O)(c2ccccc2)c2cc3c(c(-c4cccc(F)c4Cl)n2)OC[C@]3(C)C(N)=O)cc2cn(C3(F)CC3)nc12 [Example 368] |
| < 0.2 | < 0.2 | COc1cc([C@](O)(CNC(=O)c2cc(OC)c3nn(C(F)F)cc3c2)c2cc3c(c(-c4cccc(Cl)c4Cl)n2)OC[C@]3(C)C(N)=O)cc(OC)n1 [Example 498] |
| > 0.2 | > 0.2 | COc1cc(C(=O)NC[C@@](O)(c2cccc(F)c2)c2cc3c(c(-c4ccc(C(C)(C)O)cc4)n2)OC[C@]3(C)C(N)=O)cc2cn(C3(F)CC3)nc12 [Example 397] |
| < 0.2 | < 0.2 | COc1cc(C(=O)NC[C@@](O)(c2ccnc(C)c2)c2cc3c(c(-c4cc(Cl)c(F)cc4F)n2)OC[C@]3(C)C(N)=O)cc2cn(C3CC3)nc12 [Example 485] |
| < 0.2 | < 0.2 | COc1cc(C(=O)NC[C@@](O)(c2cccc(C(C)=O)c2)c2cc3c(c(-c4cccc(Cl)c4Cl)n2)OC[C@]3(C)C(N)=O)cc2cn(C3CC3)nc12 [Example 493] |
| < 0.2 | < 0.2 | COc1cc(C(=O)NC[C@@](O)(c2cccc(C#N)c2)c2cc3c(c(-c4cc(Cl)c(F)cc4F)n2)OC[C@]3(C)C(N)=O)cc2cn(C3CC3)nc12 [Example 488] |
| < 0.2 | < 0.2 | COc1cccc([C@](O)(CNC(=O)c2cc(OC)c3nn(C4CC4)cc3c2)c2cc3c(c(-c4cccc(Cl)c4Cl)n2)OC[C@]3(C)C(N)=O)n1 [Example 496] |
| < 0.2 | > 0.2 | COc1cc(C(=O)NC[C@@](O)(c2ccc(=O)[nH]c2)c2cc3c(c(-c4cc(Cl)c(F)cc4F)n2)OC[C@]3(C)C(N)=O)cc2cn(C3CC3)nc12 [Example 505] |
| < 0.2 | > 0.2 | COc1cc(C(=O)NC[C@@](O)(c2cc[nH]c(=O)c2)c2cc3c(c(-c4cc(Cl)c(F)cc4F)n2)OC[C@]3(C)C(N)=O)cc2cn(C3CC3)nc12 [Example 504] |
| > 0.2 | > 0.2 | COc1cc(C(=O)NC[C@](O)(c2cccc(F)c2)c2cc3c(c(-c4ccc(C(C)(C)O)cc4)n2)OC[C@]3(C)C(N)=O)cc2cn(C3(F)CC3)nc12 [Example 398] |
